Assay results as given in ChEMBL document CHEMBL1201862, “PubChem BioAssay data set” (2004).
Blank lines part the entries; values can stand above or below the molecule they belong to. Activity calls are given as the source filed them.

Experiments:
[1] = Late stage assay provider results from the probe development effort to identify selective inhibitors of heat shock protein 90 (HSP90): Absorbance-based cell proliferation assay in SKBR3 cells.; assay type: functional; conditions: SK-BR-3
[2] = Late stage assay provider results from the probe development effort to identify selective inhibitors of heat shock protein 90 (HSP90): Absorbance-based cell proliferation assay in MCF7 cells.; assay type: functional
[3] = growth inhibition of yeast DHODH-expressing 3D7 parasites – SYBR Green, dry powder samples, dose response (AID 1159570); assay type: functional, cell-based;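 note: parasite growth measured after 72 hours of compound exposure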
[4] = toxicity to human HepG2 hepatoma cells – cell-based, plate reader, dry powder samples, cytotoxicity control, dose response (AID 1159569); assay type: functional;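 note: inhibitor potency with signal falling toward the positive control level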
[5] = Plasmodium falciparum Dd2 Sybr green parasite growth Measured in Cell-Based and Microorganism Combination System Using Plate Reader - 2153-01_Inhibitor_Dose_DryPowder_Activity_Set3.; assay type: functional
[6] = P. falciparum Dd2 growth inhibitors, dose response, SYBR Green, cherry-picked samples (AID 1159567); assay type: functional, cell-based
[7] = growth inhibition of PfATP4-mutant resistant parasites – NITD609-resistant line, SYBR Green, dry powder, dose response (AID 1159571); assay type: functional, cell-based;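 note: parasites synchronized at ring stage by sorbitol before testing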
[8] = Dd2 malaria parasite growth inhibition potency – SYBR Green, dry powder samples, dose response (AID 1159566); assay type: functional, cell-based;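 note: potency for growth inhibition with lower SYBR green DNA signal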
[9] = glucagon-like peptide-1 release potency in STC-1, concentration-response, half-maximal inhibitory concentration in the STC-1 line (AID 1117345); assay type: functional, cell-based
[10] = Potency on glucagon-like peptide 1 release, dose-response in NCI-H716 cell line, half maximal inhibitory concentration (AID 1117344); assay type: functional, cell-based
[11] = OVCAR8 cell viability loss – plate reader, dry powder samples, PAX8 project, dose response (AID 743197); assay type: functional, cell-based; conditions: OVCAR-8
[12] = biological target: Paired box protein Pax-8 (Homo sapiens, UniProt Q06710); assay: PAX8 transcriptional activity inhibition in RMG-I – RMG-I cells, luciferase, cherry-pick, dose response (AID 687027); assay type: functional, cell-based;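 note: luciferase reporter driven by Pax8 target thyroperoxidase promoter measured by SteadyGlo luminescence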
[13] = viability loss in Vero cells – cytotoxicity control for Vif-APOBEC3G degradation inhibitor project, dose response (AID 1117358); assay type: functional; conditions: Vero
[14] = biological target: Muscarinic acetylcholine receptor M5 (Homo sapiens, UniProt P08912); assay: potentiation of ACh response at human M5 – cell-based, concentration-response curve, dose response (AID 651878); assay type: functional
[15] = biological target: T1, Oxysterols receptor LXR-beta (Homo sapiens, UniProt P55055); assay type: functional, cell-based;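 note: agonist activity at LXR measured by a cell-based luminescence readout across a dose range, run as a counterscreen for daf-12 agonists; HEK293 cells with Gal4-LXR fusion and GAL4-driven luciferase reporter; potency for activation of Gal4-LXR reporter so compounds are agonists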
T1 sequence (P55055 whole entry): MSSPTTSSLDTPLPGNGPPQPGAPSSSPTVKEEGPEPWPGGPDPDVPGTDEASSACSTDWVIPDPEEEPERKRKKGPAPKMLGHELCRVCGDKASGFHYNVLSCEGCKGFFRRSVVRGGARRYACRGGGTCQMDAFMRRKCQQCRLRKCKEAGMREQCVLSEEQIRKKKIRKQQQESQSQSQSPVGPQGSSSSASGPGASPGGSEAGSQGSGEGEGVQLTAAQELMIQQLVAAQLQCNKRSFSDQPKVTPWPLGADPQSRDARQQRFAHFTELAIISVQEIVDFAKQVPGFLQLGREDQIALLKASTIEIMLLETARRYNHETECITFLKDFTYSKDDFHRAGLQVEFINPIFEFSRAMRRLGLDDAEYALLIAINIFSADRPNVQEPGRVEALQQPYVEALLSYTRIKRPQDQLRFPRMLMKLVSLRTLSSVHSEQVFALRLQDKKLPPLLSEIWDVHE

[16] = toxicity to human hepatoma HepG2 cells – cell-based, cherry-picked samples, cytotoxicity control, dose response (AID 1159577); assay type: functional
[17] = reduced cellular PGC1a acetyl-lysine signal – cell-based, cherry-picked samples, dose response (AID 720514); assay type: functional;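 note: potency may reflect raised or lowered acetylation signal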
[18] = cells; assay type: functional, cell-based
[19] = cells; assay type: functional, cell-based; remark: listed apart in the source
[20] = viability loss in HepG2 hepatoma cells – cell-based, ATP luminescence, cherry-pick, activator set 2, cytotoxicity control, dose response (AID 1053143); assay type: functional
[21] = biological target: NAD-dependent protein deacylase sirtuin-5, mitochondrial (Homo sapiens, UniProt Q9NXA8); assay: blockers of sirtuin-5 peptide desuccinylation – biochemical, fluorescence imaging, cherry-pick, set 6, dose response (AID 720597)
[22] = cytotoxicity in MITF-independent A375 cells – cell-based, CellTiter-Glo luminescence, dry powder, set 4, counter-screen for MITF inhibitor project, dose response (AID 624364); assay type: functional; conditions: A-375;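 note: A375 melanoma cells are MITF independent so this is a counter screen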
[23] = viability loss in MITF-independent A375 cells – cell-based, CellTiter-Glo luminescence, dry powder, set 2, counter-screen for MITF inhibitor project, dose response (AID 624489); assay type: functional; conditions: A-375;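 note: actives are compounds lowering A375 viability meaning general cytotoxicity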
[24] = A549 lung cell viability reduction – CellTiter-Glo luminescence, cherry-pick, cytotoxicity control, dose response (AID 743484); assay type: functional, cell-based
[25] = biological target: Transthyretin (Homo sapiens, UniProt P02766); assay: Luminescence-based cell-based high throughput dose response assay to identify activators of Transthyretin (TTR) transcription.; assay type: functional
[26] = HCT116 cell viability decrease, GSK3B pretreatment – CellTiter-Glo, IC50, dose response (AID 1117339); assay type: functional; conditions: HCT-116
[27] = RKO cell viability reduction, dose response, CellTiter-Glo luminescence (AID 1117322); assay type: functional
[28] = Reduced DLD-1 viability, concentration-response, CellTiter-Glo luminescence (AID 1117352); assay type: functional
[29] = cytotoxicity toward Colo320 cells – cell-based, CellTiter-Glo luminescence, IC50, dose response (AID 1117334); assay type: functional; conditions: COLO 320
[30] = cytotoxicity toward HCT116 cells – cell-based, CellTiter-Glo luminescence, IC50, dose response (AID 1117332); assay type: functional; conditions: HCT-116
[31] = SNU-C1 cell viability reduction, dose response, CellTiter-Glo luminescence (AID 1117323); assay type: functional, cell-based
[32] = cytotoxicity toward HT-29 cells – cell-based, CellTiter-Glo luminescence, IC50, dose response (AID 1117330); assay type: functional
[33] = CellTiter-Glo luminescence survival assay, SW480 colon tumor line, concentration-response curve, half-maximal inhibitory concentration (AID 1117338); assay type: functional
[34] = biological target: CAAX prenyl protease 2 (Saccharomyces cerevisiae S288c, UniProt Q03530); assay type: biochemical
[35] = Luminescence Cell-Based Dose Retest to Confirm Inhibitors of Cancer Stem Cells. [Related pubchem assays (depositor defined):AID2717, AID2721]; assay type: functional; conditions: Homo sapiens
[36] = viability loss in HepG2 liver cells – cell-based, ATP luminescence, cherry-pick, set 6, cytotoxicity control, dose response (AID 1053125); assay type: functional
[37] = cells; conditions: A549
[38] = cells; conditions: HEK293
[39] = Late-stage results from the probe development effort to identify antagonists of arginine vasopressin receptor 1a (AVPR1a): fluorescence-based cell-based dose response OXTR inhibition counterscreen assay.; assay type: functional
[40] = biological target: Vasopressin V2 receptor (Homo sapiens, UniProt P30518); assay: Late-stage results from the probe development effort to identify antagonists of arginine vasopressin receptor 1a (AVPR1a): fluorescence-based cell-based dose response AVPR2 inhibition counterscreen assay.; assay type: functional
[41] = Late-stage results from the probe development effort to identify antagonists of arginine vasopressin receptor 1a (AVPR1a): fluorescence-based cell-based dose response AVPR1a inhibition assay.; assay type: functional
[42] = biological target: Vasopressin V1b receptor (Homo sapiens, UniProt P47901); assay: Late-stage results from the probe development effort to identify antagonists of arginine vasopressin receptor 1a (AVPR1a): fluorescence-based cell-based dose response AVPR1b inhibition counterscreen assay.; assay type: functional
[43] = biological target: Metabotropic glutamate receptor 5 (Rattus norvegicus, UniProt P31424); assay: Identification of a glycine sulfonamide based non-MPEP site positive allosteric potentiator (PAM) of mGlu5 (calcium_assay).; assay type: functional
[44] = IC50 of insulin release inhibition, rat insulinoma INS-1E line, 5 mM glucose, cell-based (AID 1117331); assay type: functional
[45] = cells; assay type: functional, cell-based; conditions: INS-1E
[46] = rise of 2N DNA cells, HeLa – IC50, dose response (AID 1117349); assay type: functional, cell-based
[47] = rise of 4N DNA cells, HeLa – IC50, dose response (AID 1117351); assay type: functional, cell-based
[48] = biological target: E3 ubiquitin-protein ligase UHRF1 (Homo sapiens, UniProt Q96T88); assay: Counterscreen for inhibitors of 5-meCpG-binding domain protein 2 (MBD2): TRFRET-based biochemical high throughput dose response assay to identify inhibitors of binding of ubiquitin-like with PHD and ring finger domains 1 (UHRF1) to methylated oligonucleotide.
E3 ubiquitin-protein ligase UHRF1, sequence (Q96T88 whole entry, the tested form may be a part): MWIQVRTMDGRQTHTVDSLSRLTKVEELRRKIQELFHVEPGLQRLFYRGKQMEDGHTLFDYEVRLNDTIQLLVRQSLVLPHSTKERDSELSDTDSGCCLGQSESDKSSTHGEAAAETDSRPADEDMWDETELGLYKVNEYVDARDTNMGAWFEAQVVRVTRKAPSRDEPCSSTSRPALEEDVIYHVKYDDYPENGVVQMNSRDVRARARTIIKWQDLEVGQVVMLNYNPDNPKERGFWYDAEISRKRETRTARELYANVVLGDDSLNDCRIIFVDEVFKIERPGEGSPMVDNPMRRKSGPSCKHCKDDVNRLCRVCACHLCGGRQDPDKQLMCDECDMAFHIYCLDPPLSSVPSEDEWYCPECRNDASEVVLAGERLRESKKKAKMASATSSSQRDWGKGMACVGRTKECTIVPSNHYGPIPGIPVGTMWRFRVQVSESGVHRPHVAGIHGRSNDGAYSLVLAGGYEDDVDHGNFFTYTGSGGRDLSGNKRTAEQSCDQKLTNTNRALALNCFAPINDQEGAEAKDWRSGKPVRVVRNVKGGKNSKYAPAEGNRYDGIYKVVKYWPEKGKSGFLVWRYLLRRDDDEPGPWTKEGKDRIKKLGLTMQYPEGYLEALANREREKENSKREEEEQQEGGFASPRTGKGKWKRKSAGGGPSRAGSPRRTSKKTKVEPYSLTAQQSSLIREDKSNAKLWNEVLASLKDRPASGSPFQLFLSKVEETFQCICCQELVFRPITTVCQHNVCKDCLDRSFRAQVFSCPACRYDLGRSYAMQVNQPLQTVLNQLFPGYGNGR

Paired box protein Pax-8, sequence (Q06710 whole entry): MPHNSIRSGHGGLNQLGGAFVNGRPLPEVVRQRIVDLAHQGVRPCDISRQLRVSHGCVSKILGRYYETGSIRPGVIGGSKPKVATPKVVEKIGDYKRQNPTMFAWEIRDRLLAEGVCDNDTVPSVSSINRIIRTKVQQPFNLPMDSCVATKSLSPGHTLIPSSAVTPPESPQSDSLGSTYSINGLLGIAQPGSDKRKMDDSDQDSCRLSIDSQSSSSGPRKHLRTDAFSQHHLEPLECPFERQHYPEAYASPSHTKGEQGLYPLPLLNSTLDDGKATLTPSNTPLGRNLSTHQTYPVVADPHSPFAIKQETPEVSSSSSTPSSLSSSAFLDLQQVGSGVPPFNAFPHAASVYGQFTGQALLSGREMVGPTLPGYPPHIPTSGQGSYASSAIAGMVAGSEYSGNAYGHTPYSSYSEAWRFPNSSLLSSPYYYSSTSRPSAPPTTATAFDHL
Vasopressin V1b receptor, sequence (P47901 whole entry): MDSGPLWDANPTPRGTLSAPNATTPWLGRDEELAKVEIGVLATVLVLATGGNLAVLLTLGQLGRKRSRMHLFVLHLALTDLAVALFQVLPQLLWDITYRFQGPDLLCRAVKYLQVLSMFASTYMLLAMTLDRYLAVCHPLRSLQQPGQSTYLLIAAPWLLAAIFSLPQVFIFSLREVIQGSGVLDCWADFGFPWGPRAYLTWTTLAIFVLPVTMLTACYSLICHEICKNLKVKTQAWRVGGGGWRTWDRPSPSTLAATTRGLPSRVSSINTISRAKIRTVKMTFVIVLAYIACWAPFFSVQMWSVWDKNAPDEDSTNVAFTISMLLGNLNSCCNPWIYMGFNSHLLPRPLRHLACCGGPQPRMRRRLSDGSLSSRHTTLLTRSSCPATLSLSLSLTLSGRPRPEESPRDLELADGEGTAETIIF
CAAX prenyl protease 2, sequence (Q03530 whole entry): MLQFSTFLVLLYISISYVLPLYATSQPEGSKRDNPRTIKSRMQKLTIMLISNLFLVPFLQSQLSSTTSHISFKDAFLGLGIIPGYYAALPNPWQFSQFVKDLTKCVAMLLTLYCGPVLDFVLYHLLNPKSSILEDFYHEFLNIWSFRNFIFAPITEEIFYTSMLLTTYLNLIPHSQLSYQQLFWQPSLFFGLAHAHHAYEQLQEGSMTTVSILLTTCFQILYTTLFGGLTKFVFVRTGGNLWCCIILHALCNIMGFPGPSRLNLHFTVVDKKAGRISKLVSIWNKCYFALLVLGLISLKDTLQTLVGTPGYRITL
Vasopressin V2 receptor, sequence (P30518 whole entry): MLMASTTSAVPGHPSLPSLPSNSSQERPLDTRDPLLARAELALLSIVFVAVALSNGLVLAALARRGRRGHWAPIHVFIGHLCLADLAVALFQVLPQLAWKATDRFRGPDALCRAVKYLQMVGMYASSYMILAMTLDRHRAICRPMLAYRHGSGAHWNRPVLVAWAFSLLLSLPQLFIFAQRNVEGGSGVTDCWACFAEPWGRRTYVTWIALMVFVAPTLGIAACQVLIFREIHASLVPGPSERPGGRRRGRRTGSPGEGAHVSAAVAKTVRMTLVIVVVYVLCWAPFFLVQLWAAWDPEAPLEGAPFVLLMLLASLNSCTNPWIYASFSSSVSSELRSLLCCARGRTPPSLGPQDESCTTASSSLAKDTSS
Metabotropic glutamate receptor 5, sequence (P31424 whole entry): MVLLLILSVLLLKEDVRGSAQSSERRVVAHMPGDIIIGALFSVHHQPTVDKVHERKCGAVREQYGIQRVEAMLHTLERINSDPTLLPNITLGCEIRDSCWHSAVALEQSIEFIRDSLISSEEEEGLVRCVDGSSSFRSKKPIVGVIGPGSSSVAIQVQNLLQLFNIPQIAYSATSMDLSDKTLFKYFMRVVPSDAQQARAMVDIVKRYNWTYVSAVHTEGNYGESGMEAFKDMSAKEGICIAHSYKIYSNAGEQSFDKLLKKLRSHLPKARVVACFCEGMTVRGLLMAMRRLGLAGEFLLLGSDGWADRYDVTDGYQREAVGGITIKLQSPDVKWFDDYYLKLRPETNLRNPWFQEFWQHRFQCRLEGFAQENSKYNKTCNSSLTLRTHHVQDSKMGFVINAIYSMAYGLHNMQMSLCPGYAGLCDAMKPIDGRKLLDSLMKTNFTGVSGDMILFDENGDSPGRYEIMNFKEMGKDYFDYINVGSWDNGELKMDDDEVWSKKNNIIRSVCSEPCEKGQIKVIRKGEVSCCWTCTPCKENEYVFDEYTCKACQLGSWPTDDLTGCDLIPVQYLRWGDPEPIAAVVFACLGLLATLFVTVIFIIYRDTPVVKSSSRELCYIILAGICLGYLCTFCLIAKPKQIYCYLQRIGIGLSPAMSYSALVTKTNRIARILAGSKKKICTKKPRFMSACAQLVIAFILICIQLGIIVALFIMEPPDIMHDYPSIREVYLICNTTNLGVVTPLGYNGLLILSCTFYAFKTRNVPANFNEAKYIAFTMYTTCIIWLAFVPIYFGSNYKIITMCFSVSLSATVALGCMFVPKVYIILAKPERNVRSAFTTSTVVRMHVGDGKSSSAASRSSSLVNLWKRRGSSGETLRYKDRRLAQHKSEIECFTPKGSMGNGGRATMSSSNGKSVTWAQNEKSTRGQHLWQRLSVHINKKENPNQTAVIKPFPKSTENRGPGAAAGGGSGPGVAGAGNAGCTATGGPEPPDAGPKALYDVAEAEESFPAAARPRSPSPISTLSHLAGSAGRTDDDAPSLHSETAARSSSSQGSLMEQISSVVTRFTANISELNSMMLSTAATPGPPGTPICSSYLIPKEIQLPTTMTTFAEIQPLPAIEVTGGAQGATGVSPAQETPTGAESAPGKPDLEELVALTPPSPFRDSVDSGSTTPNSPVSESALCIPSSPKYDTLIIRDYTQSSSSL
Muscarinic acetylcholine receptor M5, sequence (P08912 whole entry, the tested form may be a part): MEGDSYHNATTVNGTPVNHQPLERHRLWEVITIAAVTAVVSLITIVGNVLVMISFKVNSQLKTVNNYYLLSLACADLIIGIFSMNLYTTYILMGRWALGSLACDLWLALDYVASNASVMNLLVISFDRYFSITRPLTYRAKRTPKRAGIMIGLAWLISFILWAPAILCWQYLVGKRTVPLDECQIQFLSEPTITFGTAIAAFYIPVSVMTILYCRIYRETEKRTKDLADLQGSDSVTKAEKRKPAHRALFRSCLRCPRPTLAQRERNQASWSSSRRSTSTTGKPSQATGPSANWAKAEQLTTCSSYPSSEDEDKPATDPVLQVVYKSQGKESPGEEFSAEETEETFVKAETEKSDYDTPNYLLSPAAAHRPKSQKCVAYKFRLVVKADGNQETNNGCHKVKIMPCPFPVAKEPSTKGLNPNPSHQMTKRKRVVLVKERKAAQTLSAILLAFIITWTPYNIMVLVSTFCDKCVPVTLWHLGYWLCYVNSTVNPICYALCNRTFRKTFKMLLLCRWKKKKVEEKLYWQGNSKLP
NAD-dependent protein deacylase sirtuin-5, mitochondrial, sequence (Q9NXA8 whole entry): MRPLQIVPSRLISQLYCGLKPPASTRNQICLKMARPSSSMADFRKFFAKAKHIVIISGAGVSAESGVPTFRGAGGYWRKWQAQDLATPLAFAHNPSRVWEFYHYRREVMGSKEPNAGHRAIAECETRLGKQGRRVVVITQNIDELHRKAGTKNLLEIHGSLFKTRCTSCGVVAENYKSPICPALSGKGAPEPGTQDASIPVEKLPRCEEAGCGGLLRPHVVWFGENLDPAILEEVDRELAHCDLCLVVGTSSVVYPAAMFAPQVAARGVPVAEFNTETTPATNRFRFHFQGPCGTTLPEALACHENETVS

Compound: CC(NC(=O)c1coc(=O)c(Br)c1)C1C2CCC3CC(C2)CC31 (stereo unspecified)
IC50 [1]: 8.3 µM (active)
IC50 [2]: 1.8 µM (active)

Compound: CCCNC(=O)N1[C@H](C#N)[C@H](c2ccc(-c3cccc(OC)c3)cc2)[C@H]1CO
AC50 [3]: 10.4 µM (active)
AC50 [4]: > 100 µM (inactive)
AC50 [5]: 0.0751 µM (active)
AC50 [6]: < 0.3 µM (active)
AC50 [7]: 0.0278 µM (active)
AC50 [8]: 0.0154 µM (active)

Compound: O=C(O)c1cc(/N=N/c2ccc(O)c(C(=O)O)c2)ccc1O [OLSALAZINE]
IC50 [9]: 9.54 µM (inactive)
IC50 [10]: > 40 µM (inactive)

Compound: C[C@H](CO)N1C[C@H](C)[C@@H](CN(C)CC2CCCCC2)Oc2c(NC(=O)CCCCCC(=O)Nc3ccccc3N)cccc2C1=O
AC50 [11]: 46.8 µM (active)
AC50 [12]: 11.1 µM (active)

Compound: CC1CCCCN1C(=O)c1ccc(S(=O)(=O)N2CCCCC2C)cc1 (stereo unspecified)
CC50 [13]: > 40 µM (active)

EC50 [14]: 0.36 µM (active)
Compound: O=C1C(=O)N(CCOc2ccc(C(F)(F)F)cc2)c2ccc(OC(F)(F)F)cc21

EC50 [15]: > 67.4 µM (inactive)
Compound: N#Cc1c(N)nc(N)nc1Nc1ccc(Br)cc1

Compound: O=C(Nc1ccc(C(F)(F)F)cc1)N1C[C@@H]2N[C@H](C1)[C@@H]2c1ccc(-c2cccc(F)c2)cc1
AC50 [6]: 3.45 µM (active)
AC50 [16]: 3.52 µM (active)
AC50 [12]: 22.4 µM (active)
AC50 [17]: 4.04 µM (active)

Compound: Nc1ccccc1NC(=O)c1ccccc1
EC50 [18]: > 350 µM (not active)
EC50 [19]: 13.8 µM (active)
AC50 [20]: 17.5 µM (active)

AC50 [21]: > 30 µM (inactive)
Compound: C[C@H](CO)N1C[C@H](C)[C@@H](CN(C)C(=O)C2CCCCC2)OCCCC[C@H](C)Oc2ccc(NC(=O)Nc3ccc(F)cc3)cc2C1=O

Compound: CCN(CC)CCCNC1=C(Nc2ccccc2)C(=O)c2ccccc2C1=O
AC50 [22]: 65 µM (active)
AC50 [23]: 31 µM (active)

Compound: Cc1cc(C)c(C#N)c(N2CCN(c3ccccc3)CC2)n1
AC50 [24]: > 52 µM (inactive)

EC50 [25]: > 167 µM (inactive)
Compound: Cc1cccc(N(C)c2ncnc3onc(-c4ccc(F)cc4)c23)c1C

Compound: Clc1ccc(C(Cn2ccnc2)OCc2ccsc2Cl)c(Cl)c1 (stereo unspecified) [TIOCONAZOLE]
IC50 [26]: 2.84 µM (active)
IC50 [27]: 5.25 µM (inactive)
IC50 [28]: > 20 µM (inactive)
IC50 [29]: 5.23 µM (inactive)
IC50 [30]: 4.07 µM (active)
IC50 [31]: 2.18 µM (active)
IC50 [32]: > 20 µM (inactive)
IC50 [33]: > 20 µM (inactive)

Compound: CCCCCCSc1cc(-c2nc3cc(C)ccn3c2NCCCC)ccc1OC
AC50 [34]: 19.8 µM (active)
AC50 [35]: 7.54 µM (active)
AC50 [36]: 30.3 µM (active)
AC50 [37]: 45.6 µM (active)
AC50 [38]: 45.7 µM (active)

Compound: COc1ccc(N(CC2CC2)C(=O)N2CCN(c3cc(Cl)ccc3C)CC2)cc1
IC50 [39]: 0.25 µM (active)
IC50 [40]: 11.3 µM (inactive)
IC50 [41]: 0.0363 µM (active)
IC50 [42]: 16.6 µM (inactive)

EC50 [43]: 1.39 µM
Compound: CS(=O)(=O)N(CC(=O)NC1CCC1)c1cc(C(F)(F)F)ccc1Cl

Compound: CN(C)CCOC(c1ccccc1)c1ccc(Br)cc1 (stereo unspecified) [BROMODIPHENHYDRAMINE]
IC50 [44]: 2.77 µM (active)
IC50 [45]: > 33.3 µM (inactive)
IC50 [27]: > 20 µM (inactive)
IC50 [46]: > 10 µM (inactive)
IC50 [47]: > 10 µM (inactive)
IC50 [28]: > 20 µM (inactive)
IC50 [29]: > 20 µM (inactive)
IC50 [30]: > 20 µM (inactive)
IC50 [31]: 3.1 µM (active)
IC50 [33]: > 20 µM (inactive)

IC50 [48]: > 0.541 µM (active)
Compound: COc1ccc2c(=O)c3c(=O)n(-c4ccccc4)c(-c4ccc(C)cc4)nc3oc2c1
